For orientation: IC50 means the point on the concentration scale where inhibition reaches its midpoint.

Experimental findings from US10660877B2 (BRISTOL-MYERS SQUIBB COMPANY, priority 2016, dated 2020) are described below.

Read-outs that look alike come from different tables or passages of the source. Bounds are passed on as bounds.

One experiment addresses human TLR7 (Homo sapiens (Human), UniProt Q9NYK1). The experiment can be described thus: TLR7 inhibition reporter assay (HEK-Blue cells, SEAP reporter, gardiquimod stimulation). Format: cell-based. (In a reporter assay the amount or activity of a reporter protein is the signal.)
A further experiment concerns the target human TLR8 (Homo sapiens (Human), UniProt Q9NR97). Put plainly: TLR8 inhibition reporter assay (HEK-Blue cells, SEAP reporter, R848 stimulation).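 Note: compounds tested from 0.05 nM to 50 µM, 22 h at 37 °C, SEAP measured with HEK-Blue Detection, inhibition relative to agonist plus DMSO versus a known inhibitor.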
Another experiment has as its target human TLR9 (Homo sapiens (Human), UniProt Q9NR96). Put plainly: TLR9 inhibition reporter assay (HEK-Blue cells, SEAP reporter, ODN2006 stimulation).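 Note: compounds tested over 0.05 nM to 50 µM, 22 h incubation, inhibition taken as SEAP signal drop from agonist plus DMSO wells toward a known inhibitor control.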
The mark [1] stands for this setting: HEK-Blue cells, gardiquimod 7.5 μM.
[2] abbreviates: read-out: TLR8 IC50, HEK-Blue cells, R848 15.9 μM.
[3] abbreviates: read-out: TLR9 IC50, HEK-Blue cells, ODN2006 5 nM.
The mark [4] stands for this setting: HEK-Blue cells overexpressing human TLR7, gardiquimod 7.5 μM.
Where [5] appears, read: read-out: TLR8 IC50, HEK-Blue cells overexpressing human TLR8, R848 15.9 μM.
Setting [6] is: read-out: TLR9 IC50, HEK-Blue cells overexpressing human TLR9, ODN2006 5 nM.
[7] abbreviates: TLR8 IC50, HEK-Blue cells overexpressing human TLR8, R848 15.9 μM.
The mark [8] stands for this setting: TLR9 IC50, HEK-Blue cells overexpressing human TLR9, ODN2006 5 nM.

human TLR9, sequence (Q9NR96 26-1032): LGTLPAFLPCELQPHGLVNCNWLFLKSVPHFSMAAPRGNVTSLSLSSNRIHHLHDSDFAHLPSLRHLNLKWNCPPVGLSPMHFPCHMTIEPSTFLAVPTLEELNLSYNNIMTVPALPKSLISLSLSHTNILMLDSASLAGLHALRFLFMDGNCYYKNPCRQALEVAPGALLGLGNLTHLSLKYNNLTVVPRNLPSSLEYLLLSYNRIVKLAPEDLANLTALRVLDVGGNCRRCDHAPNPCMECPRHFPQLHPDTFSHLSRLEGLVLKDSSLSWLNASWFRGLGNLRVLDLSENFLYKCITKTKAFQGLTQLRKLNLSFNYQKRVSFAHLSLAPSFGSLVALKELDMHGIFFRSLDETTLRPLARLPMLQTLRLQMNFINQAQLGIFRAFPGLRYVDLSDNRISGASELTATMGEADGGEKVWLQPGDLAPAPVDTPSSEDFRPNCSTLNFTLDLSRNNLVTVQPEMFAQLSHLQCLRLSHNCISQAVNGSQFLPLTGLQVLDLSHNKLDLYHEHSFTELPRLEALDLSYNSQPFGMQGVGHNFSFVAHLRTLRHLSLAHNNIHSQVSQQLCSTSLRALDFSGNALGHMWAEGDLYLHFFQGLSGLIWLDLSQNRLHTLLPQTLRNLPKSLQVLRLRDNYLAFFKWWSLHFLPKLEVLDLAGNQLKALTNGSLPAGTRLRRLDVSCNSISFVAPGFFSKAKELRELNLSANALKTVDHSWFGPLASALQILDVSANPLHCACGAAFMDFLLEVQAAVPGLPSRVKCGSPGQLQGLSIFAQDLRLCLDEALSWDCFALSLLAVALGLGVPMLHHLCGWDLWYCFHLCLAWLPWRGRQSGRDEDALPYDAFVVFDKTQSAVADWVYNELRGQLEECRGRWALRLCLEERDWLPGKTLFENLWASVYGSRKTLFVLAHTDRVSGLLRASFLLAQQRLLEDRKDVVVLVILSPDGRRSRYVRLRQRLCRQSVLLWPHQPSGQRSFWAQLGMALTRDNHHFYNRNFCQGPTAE
human TLR7, sequence (Q9NYK1 27-1049): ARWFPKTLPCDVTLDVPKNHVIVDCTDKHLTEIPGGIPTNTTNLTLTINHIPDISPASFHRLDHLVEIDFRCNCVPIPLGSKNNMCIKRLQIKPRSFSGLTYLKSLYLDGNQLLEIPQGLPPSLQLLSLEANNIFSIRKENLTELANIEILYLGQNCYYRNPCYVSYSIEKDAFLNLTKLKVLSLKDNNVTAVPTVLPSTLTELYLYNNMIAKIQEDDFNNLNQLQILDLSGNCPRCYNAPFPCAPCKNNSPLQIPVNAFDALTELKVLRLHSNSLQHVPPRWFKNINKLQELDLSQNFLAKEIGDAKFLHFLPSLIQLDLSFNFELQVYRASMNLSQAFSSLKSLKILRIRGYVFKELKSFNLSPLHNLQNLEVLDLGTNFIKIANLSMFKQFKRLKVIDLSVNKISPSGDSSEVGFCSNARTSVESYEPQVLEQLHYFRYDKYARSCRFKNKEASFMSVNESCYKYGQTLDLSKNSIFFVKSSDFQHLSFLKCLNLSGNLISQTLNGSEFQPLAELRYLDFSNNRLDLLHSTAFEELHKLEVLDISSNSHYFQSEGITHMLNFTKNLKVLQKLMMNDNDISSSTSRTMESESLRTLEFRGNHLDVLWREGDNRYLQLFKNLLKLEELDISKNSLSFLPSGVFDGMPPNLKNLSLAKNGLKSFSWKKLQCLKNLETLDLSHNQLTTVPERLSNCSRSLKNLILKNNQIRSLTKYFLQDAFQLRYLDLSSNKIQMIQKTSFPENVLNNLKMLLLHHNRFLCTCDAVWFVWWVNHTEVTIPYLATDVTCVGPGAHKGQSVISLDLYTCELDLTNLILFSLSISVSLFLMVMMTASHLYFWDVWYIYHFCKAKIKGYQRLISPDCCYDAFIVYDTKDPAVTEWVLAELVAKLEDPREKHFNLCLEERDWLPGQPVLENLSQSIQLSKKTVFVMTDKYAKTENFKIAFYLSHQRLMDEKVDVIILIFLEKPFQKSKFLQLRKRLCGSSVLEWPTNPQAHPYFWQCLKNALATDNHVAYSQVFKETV
human TLR8, sequence (Q9NR97 27-1041): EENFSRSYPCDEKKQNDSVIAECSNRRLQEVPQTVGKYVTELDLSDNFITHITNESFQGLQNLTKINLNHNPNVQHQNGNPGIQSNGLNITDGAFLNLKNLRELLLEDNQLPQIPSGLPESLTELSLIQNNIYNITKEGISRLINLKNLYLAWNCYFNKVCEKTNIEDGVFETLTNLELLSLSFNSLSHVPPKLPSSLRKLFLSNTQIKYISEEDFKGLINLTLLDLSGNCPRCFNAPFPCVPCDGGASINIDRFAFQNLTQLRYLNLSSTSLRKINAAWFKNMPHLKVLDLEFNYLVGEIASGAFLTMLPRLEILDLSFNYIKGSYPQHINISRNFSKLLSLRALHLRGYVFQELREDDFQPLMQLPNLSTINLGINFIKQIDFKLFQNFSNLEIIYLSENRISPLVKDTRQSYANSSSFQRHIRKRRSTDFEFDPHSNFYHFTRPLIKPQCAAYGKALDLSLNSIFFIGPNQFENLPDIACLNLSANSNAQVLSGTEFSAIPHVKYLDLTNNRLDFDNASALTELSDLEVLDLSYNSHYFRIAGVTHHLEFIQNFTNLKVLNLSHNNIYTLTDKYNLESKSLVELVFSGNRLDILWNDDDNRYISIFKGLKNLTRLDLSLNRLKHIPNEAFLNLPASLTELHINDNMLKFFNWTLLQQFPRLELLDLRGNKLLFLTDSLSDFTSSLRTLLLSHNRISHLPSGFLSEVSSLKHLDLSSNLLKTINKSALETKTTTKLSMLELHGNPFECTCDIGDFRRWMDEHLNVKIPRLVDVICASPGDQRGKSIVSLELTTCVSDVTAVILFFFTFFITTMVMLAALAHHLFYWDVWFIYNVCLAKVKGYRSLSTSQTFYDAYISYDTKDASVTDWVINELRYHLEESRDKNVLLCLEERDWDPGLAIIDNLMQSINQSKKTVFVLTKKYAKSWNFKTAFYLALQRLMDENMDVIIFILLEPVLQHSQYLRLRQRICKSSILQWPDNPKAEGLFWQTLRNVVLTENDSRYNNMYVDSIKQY
Experimental for human TLR7: TLR7/8/9 Inhibition Reporter Assays
Briefly, cells are seeded into Greiner 384 well plates (15000 cells per well for TLR7, 20,000 for TLR8 and 25,000 for TLR9) and then treated with test compounds in DMSO to yield a final dose response concentration range of 0.05 nM-50 μM. […] After a 22 hour incubation at 37° C., 5% CO2, SEAP levels are determined with the addition of HEK-Blue™ Detection reagent (Invivogen), a cell culture medium that allows for detection of SEAP, according to manufacturer's specifications. The percent inhibition is determined as the % reduction in the HEK-Blue signal present in wells treated with agonist plus DMSO alone compared to wells treated with a known inhibitor.

Regarding `Cc1cc(-c2[nH]c3ccc(C4CCN(C5CCN(C(C)C)CC5)CC4)cc3c2C)c(C)cn1` [Example 814, 2-(2,5-dimethylpyridin-4-yl)-5-(1′-isopropyl-[1,4′-bipiperidin]-4-yl)-3-methyl-1H-indole], the IC50 against human TLR7 (setting [1]) is 50.7 nM; at human TLR8 (setting [2]), 2.4 nM; on human TLR9 (setting [3]), 101 nM.

For the compound `CCN(CC)C(=O)CN1CCC(c2ccc3[nH]c(-c4cc(C)nc(C)c4)c(C(C)C)c3c2)CC1` [Example 228, 2-(4-(2-(2,6-dimethylpyridin-4-yl)-3-isopropyl-1H-indol-5-yl)piperidin-1-yl)-N,N-diethylacetamide], the 50% inhibitory concentration (IC50) at human TLR7 (setting [4]) stood at 11.5 nM; on human TLR8 (setting [5]), 28.2 nM; on human TLR9 (setting [6]) it was 1110 nM.

Turning to `Cc1cc(-c2[nH]c3ccc(C4CCN(CC(=O)N5C(C)CCC5C)CC4)cc3c2C(C)C)cc(C)n1` (stereo not drawn) [Example 261, 2-(4-(2-(2,6-dimethylpyridin-4-yl)-3-isopropyl-1H-indol-5-yl)piperidin-1-yl)-1-(2,5-dimethylpyrrolidin-1-yl)ethan-1-one], the values for the IC50 at human TLR7 (setting [4]), on human TLR8 (setting [5]) and at human TLR9 (setting [6]) were 5.7 nM, 22.3 nM and 451 nM, respectively.

For the compound `Cc1cc(-c2[nH]c3ccc(C4CCN(C(=O)C5(C#N)CC5)CC4)cc3c2C(C)C)ccn1` [Example 611, 1-(4-(3-isopropyl-2-(2-methylpyridin-4-yl)-1H-indol-5-yl)piperidine-1-carbonyl)cyclopropane-1-carbonitrile], the values for the IC50 at human TLR7 (setting [4]), at human TLR8 (setting [5]) and at human TLR9 (setting [6]) were 19.7 nM, 108 nM and 9450 nM, respectively.

Take `Cc1cc(-c2[nH]c3ccc(C4CCN(Cc5c[nH]cn5)CC4)cc3c2C(C)C)cc(C)n1` [Example 425, 5-(1-((1H-imidazol-4-yl)methyl)piperidin-4-yl)-2-(2,6-dimethylpyridin-4-yl)-3-isopropyl-1H-indole]: the IC50 at human TLR7 (setting [4]) worked out at 3.7 nM; at human TLR8 (setting [5]), 2.5 nM; at human TLR9 (setting [6]), 143 nM.

Consider `Cc1cc(-c2[nH]c3ccc(C4CCN(C(=O)Cn5nnnc5C)CC4)cc3c2C(C)C)cc(C)n1` [Example 159, 1-(4-(2-(2,6-dimethylpyridin-4-yl)-3-isopropyl-1H-indol-5-yl)piperidin-1-yl)-2-(5-methyl-1H-tetrazol-1-yl)ethan-1-one], for which the IC50 came to 4.8 nM against human TLR7 (setting [4]), 47.2 nM at human TLR8 (setting [5]) and 24400 nM on human TLR9 (setting [6]).

In the case of `Cc1cc(-c2[nH]c3ccc(C4CCN(C(=O)CN5CCCC5)CC4)cc3c2C(C)C)cc(C)n1` [Example 352, 1-(4-(2-(2,6-dimethylpyridin-4-yl)-3-isopropyl-1H-indol-5-yl)piperidin-1-yl)-2-(pyrrolidin-1-yl)ethan-1-one], the IC50 is 3.3 nM against human TLR7 (setting [4]), 10.4 nM at human TLR8 (setting [5]) and 365 nM on human TLR9 (setting [6]).

For the compound `Cc1cc(-c2[nH]c3ccc(C4CCN(C(=O)CC5C(=O)NC(=O)N5C)CC4)cc3c2C(C)C)cc(C)n1` (stereo not drawn) [Example 130, 5-(2-(4-(2-(2,6-dimethylpyridin-4-yl)-3-isopropyl-1H-indol-5-yl)piperidin-1-yl)-2-oxoethyl)-1-methylimidazolidine-2,4-dione], the results for the IC50 at human TLR7 (setting [4]), at human TLR8 (setting [5]) and on human TLR9 (setting [6]) were 29.7 nM, 73.5 nM and 11800 nM, respectively.

Consider `Cc1cc(-c2[nH]c3ccc(C4CCN(Cc5ncco5)CC4)cc3c2C(C)C)c(F)cn1` [Example 700, 2-((4-(2-(5-fluoro-2-methylpyridin-4-yl)-3-isopropyl-1H-indol-5-yl)piperidin-1-yl)methyl)oxazole], for which the IC50 against human TLR7 (setting [4]) was 55.8 nM; on human TLR8 (setting [5]), 16 nM; at human TLR9 (setting [6]), more than 50000 nM.

For the compound `Cc1cc(-c2[nH]c3ccc(C4CCN(C(=O)c5cscn5)CC4)cc3c2C(C)C)cc(C)n1` [Example 201, (4-(2-(2,6-dimethylpyridin-4-yl)-3-isopropyl-1H-indol-5-yl)piperidin-1-yl)(thiazol-4-yl)methanone], the figures for the IC50 against human TLR7 (setting [4]), at human TLR8 (setting [5]) and on human TLR9 (setting [6]) were 5 nM, 84.1 nM and 5500 nM, respectively.

Regarding `Cc1cc(-c2[nH]c3ccc(C4CCN(CC(=O)NC5(C)CCOCC5)CC4)cc3c2C(C)C)cc(C)n1` [Example 267, 2-(4-(2-(2,6-dimethylpyridin-4-yl)-3-isopropyl-1H-indol-5-yl)piperidin-1-yl)-N-(4-methyltetrahydro-2H-pyran-4-yl)acetamide], the IC50 against human TLR7 (setting [4]) stood at 2.6 nM; at human TLR8 (setting [5]), 11.1 nM; at human TLR9 (setting [6]), 348 nM.

As for `CN[C@@H](C)C(=O)N1CCC(c2ccc3[nH]c(-c4cc(C)nc(C)c4)c(C(C)C)c3c2)CC1` [Example 191, (S)-1-(4-(2-(2,6-dimethylpyridin-4-yl)-3-isopropyl-1H-indol-5-yl)piperidin-1-yl)-2-(methylamino)propan-1-one], the IC50 stood at 3.5 nM against human TLR7 (setting [4]), 14.4 nM at human TLR8 (setting [5]) and 317 nM on human TLR9 (setting [6]).

`Cc1cc(-c2[nH]c3ccc(C4CCN(C(=O)CCN(C)CCO)CC4)cc3c2C(C)C)cc(C)n1` [Example 175, 1-(4-(2-(2,6-dimethylpyridin-4-yl)-3-isopropyl-1H-indol-5-yl)piperidin-1-yl)-3-((2-hydroxyethyl)(methyl)amino)propan-1-one]: the IC50 at human TLR7 (setting [4]) was 1.5 nM; on human TLR8 (setting [5]) it was 7.1 nM; at human TLR9 (setting [6]), 213 nM.

Turning to `Cc1cc(-c2[nH]c3ccc(C4CCN(CC(=O)N5CCC[C@H](O)C5)CC4)cc3c2C(C)C)cc(C)n1` [Example 210, (S)-2-(4-(2-(2,6-dimethylpyridin-4-yl)-3-isopropyl-1H-indol-5-yl)piperidin-1-yl)-1-(3-hydroxypiperidin-1-yl)ethan-1-one], the IC50 at human TLR7 (setting [4]) was 2 nM; against human TLR8 (setting [7]), 6.2 nM; on human TLR9 (setting [8]) it was 225 nM.

On to `Cc1cc(-c2[nH]c3ccc(C4CCN(CC(=O)N(C)C5CCCCC5)CC4)cc3c2C(C)C)cc(C)n1` [Example 278, N-cyclohexyl-2-(4-(2-(2,6-dimethylpyridin-4-yl)-3-isopropyl-1H-indol-5-yl)piperidin-1-yl)-N-methylacetamide], for which the IC50 against human TLR7 (setting [4]) was 6.1 nM; on human TLR8 (setting [5]), 28.5 nM; on human TLR9 (setting [6]) it was 288 nM.

As for `Cc1cc(-c2[nH]c3ccc(C4CCN(C(=O)Cc5cc(N)n[nH]5)CC4)cc3c2C(C)C)cc(C)n1` [Example 139, 2-(3-amino-1H-pyrazol-5-yl)-1-(4-(2-(2,6-dimethylpyridin-4-yl)-3-isopropyl-1H-indol-5-yl)piperidin-1-yl)ethan-1-one], the IC50 on human TLR7 (setting [4]) amounted to 5.7 nM; against human TLR8 (setting [7]), 47.7 nM; against human TLR9 (setting [8]) it was 8860 nM.

With `CCc1c(-c2cc(F)nc(F)c2)[nH]c2ccc(C3CCN(C4CCN(CC(C)C)CC4)CC3)cc12` [Example 761, 2-(2,6-difluoropyridin-4-yl)-3-ethyl-5-(1′-isobutyl-[1,4′-bipiperidin]-4-yl)-1H-indole], the figures for the IC50 on human TLR7 (setting [4]), on human TLR8 (setting [5]) and at human TLR9 (setting [6]) were 4260 nM, 375 nM and 800 nM, respectively.

For the compound `Cc1cc(-c2[nH]c3ccc(C4CCN(Cc5nnn[nH]5)CC4)cc3c2C(C)C)c(C)cn1` [Example 695, 5-(1-((1H-tetrazol-5-yl)methyl)piperidin-4-yl)-2-(2,5-dimethylpyridin-4-yl)-3-isopropyl-1H-indole], the values for the IC50 at human TLR7 (setting [4]), at human TLR8 (setting [5]) and at human TLR9 (setting [6]) were 1310 nM, 111 nM and more than 50000 nM, respectively.

Regarding `Cc1cc(-c2[nH]c3ccc(C4CCN(Cc5cnc[nH]5)CC4)cc3c2C(C)C)c(N)cn1` [Example 823, 4-(5-(1-((1H-imidazol-5-yl)methyl)piperidin-4-yl)-3-isopropyl-1H-indol-2-yl)-6-methylpyridin-3-amine], the results for the IC50 at human TLR7 (setting [1]), on human TLR8 (setting [2]) and at human TLR9 (setting [3]) were 36.2 nM, 7.6 nM and 400 nM, respectively.

In the case of `Cc1cc(-c2[nH]c3ccc(C4CCN(C5CCN(C(C)C)CC5F)CC4)cc3c2C(C)C)ccn1` (stereo not drawn) [Example 706, 5-(3′-fluoro-1′-isopropyl-[1,4′-bipiperidin]-4-yl)-3-isopropyl-2-(2-methylpyridin-4-yl)-1H-indole], the IC50 amounted to 23 nM on human TLR7 (setting [4]), 5 nM on human TLR8 (setting [5]) and 340 nM at human TLR9 (setting [6]).

Take `CCc1c(-c2ccnc(OC)c2)[nH]c2ccc(C3CCN(C4CCN(C5CCCC5)CC4)CC3)cc12` [Example 785, 5-(1′-cyclopentyl-[1,4′-bipiperidin]-4-yl)-3-ethyl-2-(2-methoxypyridin-4-yl)-1H-indole]: the IC50 against human TLR7 (setting [4]) is 790 nM; on human TLR8 (setting [5]) it was 117 nM; on human TLR9 (setting [6]), 282 nM.

For the compound `Cc1cc(-c2[nH]c3ccc(C4CCN(C(=O)CCN(C)C5COC5)CC4)cc3c2C(C)C)cc(C)n1` [Example 589, 1-(4-(2-(2,6-dimethylpyridin-4-yl)-3-isopropyl-1H-indol-5-yl)piperidin-1-yl)-3-(methyl(oxetan-3-yl)amino)propan-1-one], the IC50 came to 4.7 nM against human TLR7 (setting [4]), 27.6 nM at human TLR8 (setting [5]) and 2110 nM on human TLR9 (setting [6]).

`Cc1cc(-c2[nH]c3ccc(C4CCN(Cc5cnc[nH]5)CC4)cc3c2C(C)C)c(C)cn1` [Example 824, 5-(1-((1H-imidazol-5-yl)methyl)piperidin-4-yl)-2-(2,5-dimethylpyridin-4-yl)-3-isopropyl-1H-indole]: the IC50 stood at 13.8 nM at human TLR7 (setting [1]); 1.2 nM against human TLR8 (TLR8 IC50, HEK-Blue cells, R848 15.9 μM); 729 nM against human TLR9 (TLR9 IC50, HEK-Blue cells, ODN2006 5 nM).

Turning to `Cc1cc(-c2[nH]c3cc(F)c(C4CCN(Cc5ncn(C)n5)CC4)cc3c2C(C)C)cc(C)n1` [Example 832, 2-(2,6-dimethylpyridin-4-yl)-6-fluoro-3-isopropyl-5-(1-((1-methyl-1H-1,2,4-triazol-3-yl)methyl)piperidin-4-yl)-1H-indole], the IC50 on human TLR7 (setting [1]) stood at 6.2 nM; at human TLR8 (setting [2]), 25.4 nM; at human TLR9 (setting [3]), 3080 nM.
